Experimental data taken from PMC5034043 (The Journal of Biological Chemistry, 2016).
Where two headings read alike, the source gives them in different places.

System: T1, synaptosomal proteome
T1 construct: from tissue; host or cells: brain synaptosomes of male C57/B6 mice
Assay type: binding, mouse
Method: Synaptosomes were resuspended to 1 mg of protein/ml in HEPES buffer medium (in mM: 140 NaCl, 5 KCl, 5 NaHCO3, 1.2 NaH2PO4, 1 MgCl2, 10 glucose, and 10 HEPES (pH 7.4)). […] The samples were allowed to equilibrate for 5 min before being transferred to a parafilm-sealed 1-mm path length quartz cuvette. The sample was then irradiated for 20 min at a peak bandwidth of 350 nm (Rayonet RPR-3500 lamp) ∼6 cm from the light source. Non-irradiated samples were left in the dark at ambient temperature (22–25 °C) for 20 min. All remaining procedures were conducted with restricted light exposure.
To 750 μg of photolabeled or control synaptosome samples, 40 μl of 10% SDS and 2 μl of 5 mM DTT in water were added. Samples were then vortexed, heated for 10 min at 65 °C, and then briefly cooled. Final concentrations of 150 μM azide-biotin (Click Chemistry Tools), 2 mM tris(3-hydroxypropyltriazolylmethyl)amine (Sigma), 1 mM ascorbic acid (Sigma), and 1 mM CuSO4·5H2O (Sigma) were added to each sample and vortexed vigorously. The samples were left in the dark at ambient temperature (22–25 °C) for 1 h with mild agitation. Directly to each sample 4× volume chilled methanol, 1.5× chilled chloroform, and 3× chilled double distilled H2O were added. Samples were vortexed vigorously and centrifuged at 1,400 × g for 30 min at 4 °C. Both liquid layers were carefully removed, and the protein pellet was washed with 2 ml of 1:1 (v/v) chilled methanol/chloroform. Samples were centrifuged at 3,500 × g for 30 min at 4 °C. Protein pellets were briefly air-dried before further processing.
750 μg of biotin-conjugated protein sample was resuspended in 500 μl of 25 mM NH4HCO3 and 6 M urea in water. Next, 150 μl of 5% Triton X-100 in water, 50 μl of 10% SDS in water, and 1.5 μl of 0.5 M DTT were added. The samples were heated for 15 min at 65 °C. After briefly cooling, 14 μl of 0.5 M iodoacetamide in water was added, and the sample was left in the dark for 45 min. […] The supernatant was diluted to 4 ml with PBS, and 2 ml of PBS containing 100 μl of 50% streptavidin-agarose resin (Thermo Scientific) was added. Biotinylated proteins within the sample were captured over resin overnight at 4 °C with mild agitation. The resin was first washed with 6 ml of 1% SDS in PBS, and then 7 ml of 0.1 M urea in PBS followed by 10 ml of PBS. The resin underwent a final wash with 0.9 ml of 50 mM Tris-HCl and 1 mM CaCl2 in water (pH 8.0) and then resuspended in 200 μl of 50 mM Tris-HCl, 1 mM CaCl2 in water (pH 8.0), and 2 μg of porcine sequencing grade trypsin (Promega). Samples were digested overnight at 37 °C. Samples were then centrifuged at 2,000 × g for 4 min, and digest supernatant was decanted. Beads were washed in 100 μl of PBS centrifuged at 5,200 × g for 5 min, and the wash was combined with the digest supernatant. To the combined sample, trifluoroacetic acid (TFA) was added to 0.4% (v/v) or until pH <2. The sample was desalted with Oasis C18 10-mg columns (Waters) as described previously ([66]). The eluted sample was dried by speed vac and resuspended in 0.1 M HEPES buffer (pH 8.5). […] Appropriate corresponding TMTsixplex^TM-labeled samples were pooled and dried by speed vac. The combined samples were resuspended in 0.5% acetic acid in water and pH-corrected with acetic acid until pH was <2. 40 μg of protein was desalted with C18 stage tips prepared in-house and dried by speed vac.
Samples were resuspended in 10 mM KH2PO4 (pH 2.6), 30% acetonitrile (v/v) in water, and fractionated by off-line strong cation exchange chromatography prior to mass spectrometry (MS) analysis similar to as reported previously ([66]). The full synaptosome proteome control was prepared similarly without TMTsixplex^TM labeling.
All TMT samples were analyzed with three-stage mass spectrometry (MS3) TMTsixplex^TM quantification workflow as described previously ([34]).

[1] = protein Q8BH66 Atlastin-1 (Atl1)
[2] = protein Q8BHE3 Caytaxin (Atcay)
[3] = protein Q8BUN9 Protein Slc24a2 (Slc24a2)
[4] = protein Q8BW75 Amine oxidase [flavin-containing] B (Maob)
[5] = protein Q8CGK7 Guanine nucleotide-binding protein G(olf) subunit alpha (Gnal)
[6] = protein Q8K0T0 Reticulon-1 (Rtn1)
[7] = protein Q8VCX5 Calcium uptake protein 1, mitochondrial (Micu1)
[8] = protein Q9CPQ3 Mitochondrial import receptor subunit TOM22 homolog (Tomm22)
[9] = protein Q9D6J5 NADH dehydrogenase [ubiquinone] 1 beta subcomplex subunit 8, mitochondrial (Ndufb8)
[10] = protein Q9D328 Transmembrane protein 35 (Tmem35)
[11] = protein Q9ERS2 NADH dehydrogenase [ubiquinone] 1 alpha subcomplex subunit 13 (Ndufa13)
[12] = protein Q9ESW4 Acylglycerol kinase, mitochondrial (Agk)
[13] = protein Q9JIG8 PRA1 family protein 2 (Praf2)
[14] = protein Q9QXV0 ProSAAS (Pcsk1n)
[15] = protein Q9WU79 Proline dehydrogenase 1, mitochondrial (Prodh)
[16] = protein Q9Z0V2 Potassium voltage-gated channel subfamily D member 2 (Kcnd2)
[17] = protein Q67BT3 Solute carrier family 13 member 5 (Slc13a5)
[18] = protein Q80X80 C2 domain-containing protein 2-like (C2cd2l)
[19] = protein Q91YQ5 Dolichyl-diphosphooligosaccharide--protein glycosyltransferase subunit 1 (Rpn1)
[20] = protein Q99JB2 Stomatin-like protein 2, mitochondrial (Stoml2)
[21] = protein Q99PU5 Long-chain-fatty-acid--CoA ligase ACSBG1 (Acsbg1)
[22] = protein Q925I1 ATPase family AAA domain-containing protein 3 (Atad3)

SMILES: C#CCOCc1ccc(C2(C(F)(F)F)N=N2)cc1O [AziPm-click (1), 2-((prop-2-yn-1-yloxy)methyl)-5-(3-(trifluoromethyl)-3H-diazirin-3-yl)phenol]
- TMT Ratio Mean 'UV/ No UV' (protein Q8BH24 Transmembrane 9 superfamily member 4 (Tm9sf4)): 16.97
- Log2( Mean 'UV/ No UV') [1]: 4.36
- TMT Ratio Mean 'UV/ No UV' [1]: 20.55
- Log2( Mean 'UV/ No UV') [2]: 4.15
- TMT Ratio Mean 'UV/ No UV' [2]: 17.78
- Log2( Mean 'UV/ No UV') (protein Q8BJU0-2 Isoform 2 of Small glutamine-rich tetratricopeptide repeat-containing protein alpha (Sgta)): 3.93
- Log2( Mean 'UV/ No UV') [3]: 4.26
- TMT Ratio Mean 'UV/ No UV' [3]: 19.15
- Log2( Mean 'UV/ No UV') [4]: 4.59
- TMT Ratio Mean 'UV/ No UV' [4]: 24.13
- Log2( Mean 'UV/ No UV') [5]: 3.86
- TMT Ratio Mean 'UV/ No UV' [5]: 14.56
- Log2( Mean 'UV/ No UV') [6]: 3.46
- TMT Ratio Mean 'UV/ No UV' [6]: 10.99
- Log2( Mean 'UV/ No UV') [7]: 4.33
- TMT Ratio Mean 'UV/ No UV' [7]: 20.04
- Log2( Mean 'UV/ No UV') [8]: 4.38
- TMT Ratio Mean 'UV/ No UV' [8]: 20.75
- Log2( Mean 'UV/ No UV') [9]: 4.29
- TMT Ratio Mean 'UV/ No UV' [9]: 19.55
- Log2( Mean 'UV/ No UV') [10]: 4.09
- TMT Ratio Mean 'UV/ No UV' [10]: 16.99
- Log2( Mean 'UV/ No UV') (protein Q9DBF1-2 Isoform 2 of Alpha-aminoadipic semialdehyde dehydrogenase (Aldh7a1)): 3.89
- Log2( Mean 'UV/ No UV') (protein Q9EPJ9-2 Isoform 2 of ADP-ribosylation factor GTPase-activating protein 1 (Arfgap1)): 3.44
- Log2( Mean 'UV/ No UV') [11]: 4.27
- TMT Ratio Mean 'UV/ No UV' [11]: 19.26
- Log2( Mean 'UV/ No UV') [12]: 4.32
- TMT Ratio Mean 'UV/ No UV' [12]: 20.02
- Log2( Mean 'UV/ No UV') [13]: 3.94
- TMT Ratio Mean 'UV/ No UV' [13]: 15.37
- Log2( Mean 'UV/ No UV') [14]: 3.87
- TMT Ratio Mean 'UV/ No UV' [14]: 14.66
- Log2( Mean 'UV/ No UV') [15]: 4.21
- TMT Ratio Mean 'UV/ No UV' [15]: 18.52
- Log2( Mean 'UV/ No UV') [16]: 3.71
- TMT Ratio Mean 'UV/ No UV' [16]: 13.09
- Log2( Mean 'UV/ No UV') [17]: 3.47
- TMT Ratio Mean 'UV/ No UV' [17]: 11.09
- Log2( Mean 'UV/ No UV') [18]: 4.07
- TMT Ratio Mean 'UV/ No UV' [18]: 16.73
- Log2( Mean 'UV/ No UV') [19]: 3.76
- TMT Ratio Mean 'UV/ No UV' [19]: 13.55
- Log2( Mean 'UV/ No UV') [20]: 4.08
- TMT Ratio Mean 'UV/ No UV' [20]: 16.91
- Log2( Mean 'UV/ No UV') [21]: 4.16
- TMT Ratio Mean 'UV/ No UV' [21]: 17.83
- Log2( Mean 'UV/ No UV') [22]: 4.41
- TMT Ratio Mean 'UV/ No UV' [22]: 21.20
